According to patent US10329307B2, “Heterocyclic compounds as inhibitors of platelet aggregation” (UNIVERSITE DE MONTREAL, priority 2015, dated 2019):

These compounds were tested against PAR4 (Homo sapiens (Human), UniProt Q96RI0) (assay: FLIPR assay in PAR4-expressing HEK293 cells (PAR4 antagonist activity)). Settings: H-Ala-Phe(4-F)-Pro-Gly-Trp-Leu-Val-Lys-Asn-Gly-NH2-induced intracellular calcium mobilization, 11-point curves.
Type: cell-based
Source text: The FLIPR assay is an exemplary in vitro assay for measuring the activity of the PAR4 antagonists of the present invention. In this assay, intracellular calcium mobilization is induced in PAR4 expressing cells by a PAR4 agonist and calcium mobilization is monitored. See, e.g., Example A.
HEK293 cells stably expressing PAR4 were generated by a standard method of transfection of human […] cDNA expression vector or by RAGE technology from Athersys Inc. (Cleveland, Ohio) and selected based on PAR4 protein expression of mRNA expression. […] These cells express endogenous PAR1 and can elicit calcium signal upon stimulation with PAR1 agonist peptide. Cells were grown in Dulbecco's Modified Eagle's Medium (DMEM) (Invitrogen, Carlsbad, Calif.), 10% FBS, 1% PSG, 3 μg/ml puromycin and 25 nM Methotrexate) at 37° C. with 5% CO2.
FLIPR-based calcium mobilization assay in HEK293 cells was used to measure PAR4 antagonism, agonism, and selectivity against PAR1. […] Counter screens for agonist activity and PAR1 antagonist activity were also performed. Briefly, PAR1/PAR4-expressing HEK293 cells were grown in DMEM (Life Technology, Grand Island, N.Y.) containing 10% heat-inactivated FBS, 1% Penicillin-Streptomycin, 10 μg/mL blasticidin, and 100 μg/mL Zeocin at 37° C. with 5% CO2. Cells were plated overnight prior to the experiment in a black 384-well Purecoat Amine clear bottom plate (Becton Dickinson Biosciences, San Jose, Calif.) at 10,000 cells/well in 30 μL growth medium and incubated in a humidified chamber at 37° C. with 5% CO2 overnight. Prior to compound addition, the cell medium was replaced with 40 μL of 1× calcium and magnesium-containing Hank's Balanced Saline Solution (HBSS) (with 20 mM HEPES) and 1:1000 diluted fluorescent calcium indicator (Codex Biosolutions, Gaithersburg, Md.). After a 30 minute incubation period at 37° C. and a further 30 minute incubation and equilibration period at room temperature, 20 μL test compound (diluted in 1×HBSS buffer) was added at various concentrations at 0.17% dimethyl sulfoxide (DMSO) final concentration. Changes in fluorescence intensity were measured using a Functional Drug Screening System (FDSS, Hamamatsu, Japan) to determine agonist activities. The cells were then incubated for 30 minutes at room temperature followed by addition of 20 μL of agonist peptide for antagonist activity measurement. […] Compound potency was derived from 11-point concentration-response curves.
As indicated above, the FLIPR assay, an in vitro assay, measures the PAR4 antagonist activity of compounds tested as described in Example A.

Chain of PAR4 (Q96RI0 18-385): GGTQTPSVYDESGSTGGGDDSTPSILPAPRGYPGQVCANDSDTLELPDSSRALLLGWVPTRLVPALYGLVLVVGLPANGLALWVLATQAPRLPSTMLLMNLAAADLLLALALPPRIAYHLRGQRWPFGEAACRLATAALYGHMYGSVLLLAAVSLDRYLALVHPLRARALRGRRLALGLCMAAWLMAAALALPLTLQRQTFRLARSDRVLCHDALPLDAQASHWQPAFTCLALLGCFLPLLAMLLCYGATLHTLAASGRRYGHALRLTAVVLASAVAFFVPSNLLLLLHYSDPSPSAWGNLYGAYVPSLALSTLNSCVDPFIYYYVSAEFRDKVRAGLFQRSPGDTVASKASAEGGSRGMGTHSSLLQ

Row | Structure (SMILES) | IC50 [µM]
1 | COc1cc(OCC2CCCCN2c2ccc(Cl)cc2)c2cc(-c3cn4nc(OC)sc4n3)oc2c1 (single isomer, unassigned) [Example 56] | 0.92
2 | COc1cc(OCC2CCCN(c3ccc(Cl)cn3)C2)c2cc(-c3cn4nc(OC)sc4n3)oc2c1 (single isomer, unassigned) [Example 65] | 1
3 | COc1cc(OC[C@H]2CCCN2c2ccc(C#N)cc2)c2cc(-c3cn4nc(OC)sc4n3)oc2c1 [Example 1, (R)-4-(2-(((6-methoxy-2-(2-methoxyimidazo[2,1-b][1,3,4]thiadiazol-6-yl)benzofuran-4-yl)oxy)methyl)pyrrolidin-1-yl)benzonitrile] | 0.42
4 | COc1cc(OC[C@H]2CCCN2C2CCOCC2)c2cc(-c3cn4nc(OC)sc4n3)oc2c1 [Example 2, (R)-2-methoxy-6-(6-methoxy-4-((1-(tetrahydro-2H-pyran-4-yl)pyrrolidin-2-yl)methoxy)benzofuran-2-yl)imidazo[2,1-b][1,3,4]thiadiazole] | 9.4
5 | COc1ccc(N2CCN(C(=O)OC(C)(C)C)CC2COc2cc(OC)cc3oc(-c4cn5nc(C)ccc5n4)cc23)cc1 (stereo not shown) [Example 3, tert-butyl 3-(((6-methoxy-2-(6-methylimidazo[1,2-b]pyridazin-2-yl)benzofuran-4-yl)oxy)methyl)-4-(4-methoxyphenyl)piperazine-1-carboxylate] | 1.2
6 | COc1ccc(N2CCNCC2COc2cc(OC)cc3oc(-c4cn5nc(C)ccc5n4)cc23)cc1 (stereo not shown) [Example 4, 2-(6-methoxy-4-((1-(4-methoxyphenyl)piperazin-2-yl)methoxy)benzofuran-2-yl)-6-methylimidazo[1,2-b]pyridazine] | 460
7 | COc1ccc(N2CCN(C(=O)c3ccccc3)CC2COc2cc(OC)cc3oc(-c4cn5nc(C)ccc5n4)cc23)cc1 (stereo not shown) [Example 5, (3-(((6-methoxy-2-(6-methylimidazo[1,2-b]pyridazin-2-yl)benzofuran-4-yl)oxy)methyl)-4-(4-methoxyphenyl)piperazin-1-yl)(phenyl)methanone] | 24
8 | COc1ccc(N2CCN(C(=O)C3CC3)CC2COc2cc(OC)cc3oc(-c4cn5nc(C)ccc5n4)cc23)cc1 (stereo not shown) [Example 6, cyclopropyl(3-(((6-methoxy-2-(6-methylimidazo[1,2-b]pyridazin-2-yl)benzofuran-4-yl)oxy)methyl)-4-(4-methoxyphenyl)piperazin-1-yl)methanone] | 15
9 | COc1ccc(N2CCN(CC3CC3)CC2COc2cc(OC)cc3oc(-c4cn5nc(C)ccc5n4)cc23)cc1 (stereo not shown) [Example 7, 2-(4-((4-(cyclopropylmethyl)-1-(4-methoxyphenyl)piperazin-2-yl)methoxy)-6-methoxybenzofuran-2-yl)-6-methylimidazo[1,2-b]pyridazine] | 16
10 | COc1cc(OCC2CCCN(S(=O)(=O)c3ccc(C)cc3)C2)c2cc(-c3cn4nc(OC)sc4n3)oc2c1 (stereo not shown) [Example 8, 2-methoxy-6-(6-methoxy-4-((1-tosylpiperidin-3-yl)methoxy)benzofuran-2-yl)imidazo[2,1-b][1,3,4]thiadiazole] | 1.4
11 | COc1cc(OC[C@H]2CCCN2c2ccc(Cl)cc2)c2cc(-c3cn4nc(OC)sc4n3)oc2c1 [Example 9] | 0.95
12 | COc1ccc(N2CCC[C@@H]2COc2cc(OC)cc3oc(-c4cn5nc(OC)sc5n4)cc23)cc1 [Example 10] | 0.39
13 | COc1cc(OC[C@H]2CCCN2c2ccc(F)cc2)c2cc(-c3cn4nc(OC)sc4n3)oc2c1 [Example 11] | 0.74
14 | COc1cc(OC[C@H]2CCCN2c2ccc3c(c2)OCO3)c2cc(-c3cn4nc(OC)sc4n3)oc2c1 [Example 12] | 0.42
15 | CCOC(=O)c1ccc(N2CCC[C@@H]2COc2cc(OC)cc3oc(-c4cn5nc(OC)sc5n4)cc23)cc1 [Example 13] | 0.55
16 | COc1cc(OC[C@H]2CCC(=O)N2c2ccc(F)cc2)c2cc(-c3cn4nc(OC)sc4n3)oc2c1 [Example 14] | 12
17 | COc1cc(OC[C@@H]2CCCN2c2ccc(Cl)cc2)c2cc(-c3cn4nc(OC)sc4n3)oc2c1 [Example 15] | 1.3
18 | COc1cc(OC[C@@H]2CCCN2c2ccc(C#N)cc2)c2cc(-c3cn4nc(OC)sc4n3)oc2c1 [Example 16] | 0.5
19 | COc1ccc(N2CCC[C@H]2COc2cc(OC)cc3oc(-c4cn5nc(OC)sc5n4)cc23)cc1 [Example 17] | 0.29
20 | COc1cc(OC[C@@H]2CCCN2c2ccc(F)cc2)c2cc(-c3cn4nc(OC)sc4n3)oc2c1 [Example 18] | 0.47
21 | COc1cccc(N2CCC[C@H]2COc2cc(OC)cc3oc(-c4cn5nc(OC)sc5n4)cc23)c1 [Example 19] | 0.46
22 | COc1ccc(N2CCC[C@H]2COc2cc(OC)cc3oc(-c4cn5nc(OC)sc5n4)cc23)nc1 [Example 20] | 0.71
23 | COc1cc(OC[C@@H]2CCCN2c2ccc3c(c2)OCO3)c2cc(-c3cn4nc(OC)sc4n3)oc2c1 [Example 21] | 0.54
24 | COc1cc(OC[C@@H]2CCCN2c2ccc(C(F)(F)F)cc2)c2cc(-c3cn4nc(OC)sc4n3)oc2c1 [Example 22] | 0.44
25 | COc1cc(OC[C@@H]2CCCN2c2ccc(OC(F)(F)F)cc2)c2cc(-c3cn4nc(OC)sc4n3)oc2c1 [Example 23] | 0.6

Row | Structure (SMILES) | IC50 [µM]
26 | COc1cc(OC[C@@H]2CCCN2c2ccc(C)cc2)c2cc(-c3cn4nc(OC)sc4n3)oc2c1 [Example 24] | 0.95
27 | COc1cc(OC[C@@H]2CCN(c3ccc(Cl)cc3)C2)c2cc(-c3cn4nc(OC)sc4n3)oc2c1 [Example 25] | 0.79
28 | COc1ccc(N2CC[C@@H](COc3cc(OC)cc4oc(-c5cn6nc(OC)sc6n5)cc34)C2)cc1 [Example 26] | 1.4
29 | COc1cc(OCC2CN(c3ccc(F)cc3)C2)c2cc(-c3cn4nc(OC)sc4n3)oc2c1 [Example 27] | 2.3
30 | COc1cc(OC[C@@H]2CCCN(c3ccc(C#N)cc3)C2)c2cc(-c3cn4nc(OC)sc4n3)oc2c1 [Example 28] | 1.8
31 | CCOC(=O)c1ccc(N2CCC[C@@H](COc3cc(OC)cc4oc(-c5cn6nc(OC)sc6n5)cc34)C2)cc1 [Example 29] | 0.95
32 | COc1cc(OC[C@H]2CCCN(c3ccc(C#N)cc3)C2)c2cc(-c3cn4nc(OC)sc4n3)oc2c1 [Example 30] | 0.86
33 | CCOC(=O)c1ccc(N2CCC[C@H](COc3cc(OC)cc4oc(-c5cn6nc(OC)sc6n5)cc34)C2)cc1 [Example 31] | 0.89
34 | COc1ccc(N2CCCC(COc3cc(OC)cc4oc(-c5cn6nc(OC)sc6n5)cc34)C2)nc1 (stereo not shown) [Example 32] | 2.8
35 | COc1cc(OCC2CCCN(c3ccc(Cl)cc3)C2)c2cc(-c3cn4nc(OC)sc4n3)oc2c1 (stereo not shown) [Example 33] | 0.44
36 | COc1cc(OC[C@@H]2CCCN(c3ccc(Cl)cc3)C2)c2cc(-c3cn4nc(OC)sc4n3)oc2c1 [Example 34] | 0.7
37 | COc1cc(OC[C@H]2CCCN(c3ccc(Cl)cc3)C2)c2cc(-c3cn4nc(OC)sc4n3)oc2c1 [Example 35] | 0.84
38 | COc1ccc(N2CCCC(COc3cc(OC)cc4oc(-c5cn6nc(OC)sc6n5)cc34)C2)cc1 (stereo not shown) [Example 36] | 0.75
39 | COc1cc(OCC2CCCN(c3ncc(F)cc3F)C2)c2cc(-c3cn4nc(OC)sc4n3)oc2c1 (stereo not shown) [Example 37] | 0.56
40 | COc1cc(OCC2CCCN(c3ccc4c(c3)OCO4)C2)c2cc(-c3cn4nc(OC)sc4n3)oc2c1 (stereo not shown) [Example 38] | 0.54
41 | COc1cc(OCC2CCCN(c3ccc(C(F)(F)F)cc3)C2)c2cc(-c3cn4nc(OC)sc4n3)oc2c1 (stereo not shown) [Example 39] | 0.51
42 | COc1cc(OCC2CCCN(c3ccc(C#N)cc3)C2)c2cc(-c3cn4nc(OC)sc4n3)oc2c1 (stereo not shown) [Example 40] | 1.3
43 | CCOC(=O)c1ccc(N2CCCC(COc3cc(OC)cc4oc(-c5cn6nc(OC)sc6n5)cc34)C2)cc1 (stereo not shown) [Example 41] | 2.1
44 | COc1ccc(N2CCCC(COc3cc(OC)cc4oc(-c5cn6nc(OC)sc6n5)cc34)C2)c(OC)c1 (stereo not shown) [Example 42] | 1.1
45 | COc1cc(OCC2CCCN(c3cc(C#N)ccn3)C2)c2cc(-c3cn4nc(OC)sc4n3)oc2c1 (stereo not shown) [Example 43] | 0.48
46 | COc1cc(OC[C@@H]2CCCN(c3ccc(C#N)cn3)C2)c2cc(-c3cn4nc(OC)sc4n3)oc2c1 [Example 44] | 0.75
47 | CCOC(=O)c1ccc(N2CCCCC2COc2cc(OC)cc3oc(-c4cn5nc(OC)sc5n4)cc23)cc1 (stereo not shown) [Example 45] | 0.37
48 | COc1cc(OCC2CCCCN2c2ccc(C#N)cc2)c2cc(-c3cn4nc(OC)sc4n3)oc2c1 (stereo not shown) [Example 46] | 0.24
49 | CCOC(=O)c1ccc(N2CCC(COc3cc(OC)cc4oc(-c5cn6nc(OC)sc6n5)cc34)CC2)cc1 [Example 47] | 1
